According to patent US6602512B1, “Composition for the prevention of muscle fatique and skeletal muscle adaptation of strenuous exercise” (Sigma-Tau HealthScience S.p.A., priority 1999, dated 2003):

Experiments:
[1] = system: mice; experiment: Muscle fatigue test (swimming endurance); assay type: in vivo; details: for swimming endurance time (in words): daily oral 200 mg/kg over 6 days, versus controls; for Swimming time: daily oral doses of 200 mg/kg of each compound over 6 days preceding the test
Protocol: The method described by Zheng (Zheng R. L., Acta Pharmacol. Sinica, 14, 47, 1993) was used for this test in order to observe whether the administration of L-carnitine or creatinol-phosphate or of the two products in combination might increase […] in treated animals as compared to controls.
In this test, different groups of mice received daily oral doses of 200 mg/kg of L-carnitine or 200 mg/kg of creatinol-phosphate or of the two compounds in combination over the 6-day period preceding the test. The animals were immersed in a tank full of water and swimming endurance time was measured.

[2] = system: gastrocnemius muscle; experiment: Forced muscular exercise test (treadmill), MDA content in gastrocnemius muscle; assay type: in vivo; details: rats, daily oral 200 mg/kg of each compound for 6 days; for MDA content in muscle, After 5 min: gastrocnemius muscle 5 min after end of treadmill test; for MDA content in muscle, After 30 min: gastrocnemius muscle 30 min after end of treadmill test
From the text: As is known, forced muscular exercise can produce structural and inflammatory-type lesions at muscle fibre level, due to the increased oxygen consumption and to production of reactive oxygen species (ROS). A marker of the level of ROS-induced lipid peroxidation of the muscle may be obtained from its malondialdehyde (MDA) concentration. For this test, the method described by Husain was used (Husain K., Pathophysiology, 4, 69, 1997) as modified by Li (Li J.X., Acta Pharmacologica Sinica, 20, 126, 1999) which consists essentially in examining rats on a treadmill at controlled belt speed and preset inclination. In this way the rats were made to run at a belt speed of 28 m/min and an inclination of approximately 5°. Exhaustion of the control animals subjected to the exercise occurred after approximately 90 minutes.
The test was performed on rats receiving daily oral treament over the 6-day period preceding the test with 200 mg/kg of L-carnitine or with 200 mg/kg of creatinol-phosphate or with the two compounds in combination.
Five minutes and 30 minutes, respectively, after the end of the test, the animals were sacrificed and samples of gastrocnemius muscle were taken for measurement of the malondialdehyde (MDA) content using the reaction with thiobarbituric acid according to the method described by Ohkawa (Ohkawa H. Angl. Biochem 95, 351, 1979).

With `CN(CCOP(=O)(O)O)C(=N)N` [Creatinol-phosphate, 1-(2-hydroxyethyl)-1-methylguanidine-O-phosphate] the “swimming endurance time (in words)” value [1] was “increased swimming endurance time”, the Swimming time [1] was 124 ± 11 min and the “MDA content in muscle, After 5 min” value [2] was 206 ± 16 nmol/g. For the same molecule, the “MDA content in muscle, After 30 min” value [2] was 209 ± 12 nmol/g.

In the case of `C[N+](C)(C)C[C@H](O)CC(=O)[O-]` [L-carnitine], the “swimming endurance time (in words)” value [1] is reported as “increased swimming endurance time”, the Swimming time [1] is reported as 118 ± 14 min and the “MDA content in muscle, After 5 min” value [2] is reported as 218 ± 11 nmol/g. The “MDA content in muscle, After 30 min” value [2] was 216 ± 14 nmol/g.
